Laboratory results taken from ChEMBL document CHEMBL4842383 (J Med Chem, 2021).

Experiments:
[1] = Half life in Sprague-Dawley rat at 5 mg/kg, iv measured up to 24 hrs by LC-MS/MS analysis; format: ADME, organism-based; conditions: in vivo
[2] = tested on: BaF3; assay: Antiproliferative activity against mouse BaF3 cells transfected with human ETV6-CSF1R assessed as reduction in cell viability measured after 72 hrs by MTS method; conditions: BaF3, 72 h
[3] = Dose normalized Cmax in Sprague-Dawley rat at 20 to 25 mg/kg, po measured up to 24 hrs by LC-MS/MS analysis; format: ADME, organism-based; conditions: in vivo, dose 20-25 mg/kg
[4] = Volume of distribution at steady state in Sprague-Dawley rat at 5 mg/kg, iv measured up to 24 hrs by LC-MS/MS analysis; format: ADME, organism-based; conditions: in vivo, read-out: Vdss
[5] = Oral bioavailability in Sprague-Dawley rat at 20 to 25 mg/kg measured up to 24 hrs by LC-MS/MS analysis; format: ADME, organism-based; conditions: in vivo, dose 20-25 mg/kg
[6] = Half life in Sprague-Dawley rat at 20 to 25 mg/kg, po measured up to 24 hrs by LC-MS/MS analysis; format: ADME, organism-based; conditions: in vivo, dose 20-25 mg/kg
[7] = molecular target: T1, Aurora kinase A (Homo sapiens) (UniProt O14965); assay: Inhibition of recombinant GST-AURKA (residues Ser123 to Ser401) (unknown origin) expressed in Sf9 insect cells using tetra(-LRRASLG) peptide as substrate at 1 uM incubated for 90 mins by ATP Kinase Glo assay
T1 sequence (whole entry): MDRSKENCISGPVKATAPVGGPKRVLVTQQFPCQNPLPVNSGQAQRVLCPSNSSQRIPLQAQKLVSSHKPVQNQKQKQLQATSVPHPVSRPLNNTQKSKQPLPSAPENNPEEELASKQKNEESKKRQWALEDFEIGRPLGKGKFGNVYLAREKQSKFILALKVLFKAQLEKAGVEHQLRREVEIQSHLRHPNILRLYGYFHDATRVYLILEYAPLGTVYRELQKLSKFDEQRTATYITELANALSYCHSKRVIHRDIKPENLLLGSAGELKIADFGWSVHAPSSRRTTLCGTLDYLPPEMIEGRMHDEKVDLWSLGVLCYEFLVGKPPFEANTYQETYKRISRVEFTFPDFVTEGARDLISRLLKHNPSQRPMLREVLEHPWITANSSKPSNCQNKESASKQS

[8] = molecular target: Macrophage colony-stimulating factor 1 receptor (Homo sapiens, UniProt P07333); assay: Inhibition of human recombinant GST-CSF1R (residues L534 to C972) expressed in Sf9 insect cells using poly(Glu,Tyr) as substrate incubated for 20 mins by ATP Kinase Glo assay
[9] = tested on: NFS-60; assay: Antiproliferative activity against mouse NFS-60 cells transfected with human ETV6-CSF1R assessed as reduction in cell viability measured after 72 hrs by MTS method; format: functional, cell-based; conditions: NFS-60, 72 h
[10] = molecular target: T2, Aurora kinase B (Homo sapiens, UniProt Q96GD4); assay: Inhibition of human recombinant full length GST-AURKB using tetra(-LRRASLG) peptide as substrate incubated for 20 mins by ATP Kinase Glo assay; parameters: species or system Sf9
[11] = molecular target: T3, Aurora kinase A (Homo sapiens, UniProt O14965); assay: Inhibition of recombinant GST-AURKA (residues Ser123 to Ser401) (unknown origin) expressed in Sf9 insect cells using tetra(-LRRASLG) peptide as substrate incubated for 90 mins by ATP Kinase Glo assay
T3 sequence (O14965 whole entry): T1 sequence (whole entry)

[12] = Tmax in Sprague-Dawley rat at 20 to 25 mg/kg, po measured up to 24 hrs by LC-MS/MS analysis; format: ADME, organism-based; conditions: in vivo, dose 20-25 mg/kg
[13] = Dose normalized AUC (0 to inf) in Sprague-Dawley rat at 20 to 25 mg/kg, po measured up to 24 hrs by LC-MS/MS analysis; format: ADME, organism-based; conditions: in vivo, dose 20-25 mg/kg
[14] = Clearance in Sprague-Dawley rat at 5 mg/kg, iv measured up to 24 hrs by LC-MS/MS analysis; format: ADME, organism-based; conditions: in vivo
[15] = molecular target: T2, Aurora kinase B; assay: Inhibition of human recombinant full length GST-AURKB using tetra(-LRRASLG) peptide as substrate at 0.1 uM incubated for 20 mins by ATP Kinase Glo assay; format: biochemical; conditions: Sf9
[16] = Dose normalized AUC (0 to inf) in Sprague-Dawley rat at 5 mg/kg, iv measured up to 24 hrs by LC-MS/MS analysis; format: ADME, organism-based; conditions: in vivo

T2 sequence (Q96GD4 whole entry, the tested form may be a part): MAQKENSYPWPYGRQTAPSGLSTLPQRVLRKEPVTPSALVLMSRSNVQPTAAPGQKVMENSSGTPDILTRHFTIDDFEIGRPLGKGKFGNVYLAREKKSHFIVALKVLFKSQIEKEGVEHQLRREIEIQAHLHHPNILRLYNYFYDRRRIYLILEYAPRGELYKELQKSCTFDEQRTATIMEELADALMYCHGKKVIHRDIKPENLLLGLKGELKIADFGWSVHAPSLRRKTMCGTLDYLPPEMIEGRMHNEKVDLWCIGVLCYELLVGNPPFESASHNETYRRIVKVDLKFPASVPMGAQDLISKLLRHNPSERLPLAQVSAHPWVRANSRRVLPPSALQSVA
Sequence of Macrophage colony-stimulating factor 1 receptor (P07333 whole entry, the tested form may be a part): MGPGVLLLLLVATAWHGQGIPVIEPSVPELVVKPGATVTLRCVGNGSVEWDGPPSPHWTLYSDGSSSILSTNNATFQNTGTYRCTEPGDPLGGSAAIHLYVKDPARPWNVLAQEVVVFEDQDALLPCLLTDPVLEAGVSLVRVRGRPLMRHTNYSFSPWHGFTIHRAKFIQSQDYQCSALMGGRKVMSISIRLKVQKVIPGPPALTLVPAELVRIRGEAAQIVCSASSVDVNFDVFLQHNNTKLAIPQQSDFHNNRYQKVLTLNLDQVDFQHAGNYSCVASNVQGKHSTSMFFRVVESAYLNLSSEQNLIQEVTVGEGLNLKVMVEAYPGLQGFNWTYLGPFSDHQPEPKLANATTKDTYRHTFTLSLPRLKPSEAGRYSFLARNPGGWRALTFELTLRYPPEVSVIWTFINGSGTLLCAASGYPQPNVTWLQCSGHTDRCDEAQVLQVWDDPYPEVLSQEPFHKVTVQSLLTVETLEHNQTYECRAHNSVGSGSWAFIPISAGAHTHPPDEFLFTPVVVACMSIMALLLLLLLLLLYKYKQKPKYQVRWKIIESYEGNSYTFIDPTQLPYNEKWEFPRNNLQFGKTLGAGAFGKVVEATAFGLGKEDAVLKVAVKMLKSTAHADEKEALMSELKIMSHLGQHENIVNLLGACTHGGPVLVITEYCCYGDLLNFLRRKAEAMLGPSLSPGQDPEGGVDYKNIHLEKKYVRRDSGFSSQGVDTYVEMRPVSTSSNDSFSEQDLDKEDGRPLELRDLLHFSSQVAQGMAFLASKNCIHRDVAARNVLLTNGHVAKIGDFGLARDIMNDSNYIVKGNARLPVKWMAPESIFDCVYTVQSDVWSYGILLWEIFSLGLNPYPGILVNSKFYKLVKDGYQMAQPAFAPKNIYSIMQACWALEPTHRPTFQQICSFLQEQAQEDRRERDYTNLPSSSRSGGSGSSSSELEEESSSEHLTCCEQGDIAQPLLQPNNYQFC

| Structure (SMILES) | half-life [1] [min] | EC50 [2] [nM] | Cmax/dose [3] [ng/mL] | Vd [4] [L/kg] | bioavailability [5] [%] | half-life [6] [min] | inhibition [7] [%] | IC50 [8] [nM] | EC50 [9] [nM] | IC50 [10] [nM] | IC50 [11] [µM] | Tmax [12] [h] | AUCt/dose [13] [ng.hr/mL per mg/kg] | clearance [14] [mL/min/kg] | inhibition [15] [%] | AUCt/dose [16] [ng.hr/mL per mg/kg] |
| --- | --- | --- | --- | --- | --- | --- | --- | --- | --- | --- | --- | --- | --- | --- | --- | --- |
| COc1ccc(NC(=O)Nc2ccc(Oc3ncnc4cc(N(C)C)ccc34)cc2)cc1 | 96 | 23 | 10.6 | 0.7 | 3.2 | 240 | 23 | 14.1 | 23 | 22.2 | > 10 | 2.7 | 91 | 5.6 | 34 | 2842 |
| CN(C)c1ccc2c(Oc3ccc(NC(=O)NCc4ccc(F)cc4)cc3)ncnc2c1 | 198 | 46 | 56 | 1.4 | 7.3 | 1450 | 5 | 8.3 | 69 | – | > 10 | 0.5 | 89 | 12.2 | 27 | 1225 |
